This is an account of results in patent US5451522A, “Genes encoding and method of expressing an enzyme: phthalyl amidase” (priority 1994, dated 1995).

Data set [1] addresses T1, phthalyl amidase (Xanthobacter agilis, UniProt P0C2Y0).
T1 construct: 42-aa signal peptide removed
Briefly: Kinetic parameters for phthalyl amidase. The format is biochemical. The conditions noted are these: 50 mM potassium phosphate buffer, pH 8.0, 30° C. As to the method: (§1) The kinetic parameters of the enzyme were determined for several representative substrates. Compounds II, XVII, and XVIII were tested using 0.9 μg/ml of enzyme. Compounds III and XI were tested using 5.14 μg/ml of enzyme. Substrate concentrations were between 0 and 25 mM and reaction time was between 2 and 20 minutes, depending on the substrate used. […] Km is the Michaelis constant for enzyme kinetics, Vmax is the maximal rate of reaction calculated by the Michaelis-Menten equation, and Kcat is the catalytic constant for an enzyme reaction.

Data set [2] deals with T1, phthalyl amidase. Briefly: Chiral and additional substrate selectivity of phthalyl amidase. The conditions noted are these: Table 13; III = 100; 0.009 mg (0.6 units) enzyme, 2.5 μmol substrate, buffer A, 30° C. The format is biochemical. As to the method: Several additional substrates were tested in a total volume of 1 ml. […] Reactions were stopped by the addition of methanol, and phthalic acid formation was monitored by HPLC.

The target in data set [3] is T1, phthalyl amidase. The data set can be described thus: Preparative scale hydrolysis to carbacephem nucleus. The format is biochemical. The procedure: Thus, either compound XXXIII or III can be used to prepare the carbacephem nucleus (XXXIV). Substrate (4 grams) was added to 20 ml of deionized water and the pH of the solution was adjusted to 8.0 with concentrated ammonium hydroxide. Phthalyl amidase, 80 units as determined using the chromogenic substrate (II), was added to start the reaction. Temperature was maintained at 30° C. and the pH maintained at 8.0 by adding 2N ammonium hydroxide. […] The pH of the reaction was lowered to 5.0 thereby precipitating the carbacephem nucleus. Isolated yields of the nucleus were between 65% and 77%. [drawing 26]

Data set [4] concerns the target T1, phthalyl amidase. Briefly: Substrate specificity: chemical structure requirements for enzyme activity. The format is biochemical. As to conditions: 2.5 μmol compound, 0.3 units enzyme, 50 mM phosphate pH 8.0, 30° C. As to the method: (§2) The activity of phthalyl amidase against 25 compounds was determined. The compounds were divided into beta-lactams (Table 9), phthalyl amides (Table 10), and aromatic ring substituted amides (Table 11). Each reaction mixture (1 ml total volume) contained 2.5 μmol of compound and 0.3 units of enzyme (based on the chromogenic substrate) of the preparative scale purified enzyme, in 50 mM phosphate buffer, pH 8.0. The reactions were conducted at 30° C. Samples of the reaction mixture were taken at various times, and methanol (equal volume) was added to stop the reaction. The samples were examined by HPLC to determine the extent of substrate hydrolysis. The amount of compound hydrolyzed was calculated from a standard curve of the test compound. All substrates were stable in buffer at 30° C. and pH 8.0 in the absence of enzyme for 24 hours.

A short description of data set [5]: Stability of substrates in buffer without enzyme. The conditions noted are these: buffer at pH 8.0. The format is physicochemical. The procedure:
as §2
Thus, either compound XXXIII or III can be used to prepare the carbacephem nucleus (XXXIV). Substrate (4 grams) was added to 20 ml of deionized water and the pH of the solution was adjusted to 8.0 with concentrated ammonium hydroxide. Phthalyl amidase, 80 units as determined using the chromogenic substrate (II), was added to start the reaction. Temperature was maintained at 30° C. and the pH maintained at 8.0 by adding 2N ammonium hydroxide. […] The pH of the reaction was lowered to 5.0 thereby precipitating the carbacephem nucleus. […]

Substrate in data set [6]: O=C(O)c1ccccc1C(=O)Nc1ccc([N+](=O)[O-])c(C(=O)O)c1
Briefly: Kinetic parameters for phthalyl amidase. The conditions noted are these: other: 32° C., pH 8.2; II, XVII, XVIII with 0.9 μg/ml enzyme, III and XI with 5.14 μg/ml; pH 8.2; 32.0 °C. The format is biochemical, Xanthobacter agilis. As to the method:
as §1

Substrate in data set [7]: CCCCCCC(C(=O)O)n1cnc(NC(=O)c2c(F)cccc2C(=O)O)c1
Briefly: Kinetic parameters for phthalyl amidase. The format is biochemical, Xanthobacter agilis. The conditions noted are these: other: 32° C., pH 8.2; II, XVII, XVIII with 0.9 μg/ml enzyme, III and XI with 5.14 μg/ml; pH 8.2; 32.0 °C. The procedure:
as §1

Substrate in data set [8]: O=C(O)CNC(=O)c1ccccc1C(=O)O
The data set can be described thus: Kinetic parameters for phthalyl amidase. The format is biochemical, Xanthobacter agilis. As to conditions: other: 32° C., pH 8.2; II, XVII, XVIII with 0.9 μg/ml enzyme, III and XI with 5.14 μg/ml; pH 8.2; 32.0 °C. The procedure:
as §1

Substrate in data set [9]: O=C(O)C1=C(Cl)CCC2C(NC(=O)c3ccccc3C(=O)O)C(=O)N12
The data set can be described thus: Kinetic parameters for phthalyl amidase. The format is biochemical, Xanthobacter agilis. As to the method: as §1

Substrate in data set [10]: CCCCCCC(C(=O)O)n1cnc(NC(=O)c2ccccc2C(=O)O)c1
Briefly: Kinetic parameters for phthalyl amidase. The format is biochemical, Xanthobacter agilis. The conditions noted are these: other: 32° C., pH 8.2; II, XVII, XVIII with 0.9 μg/ml enzyme, III and XI with 5.14 μg/ml; pH 8.2; 32.0 °C. As to the method: as §1

What is called Vmax is the rate approached at saturating substrate. Consider `O=C(O)C1=C(Cl)CCC2C(NC(=O)c3ccccc3C(=O)O)C(=O)N12` (stereo not shown) [III, 7-phthalamido-3-chloro-4-carboxy-1-carba-dethioceph-3-em], for which the Vmax in data set [1] was determined as 7.6 µmol/min/mg. For the same molecule, the “Relative Activity” value in data set [2] was 100; in data set [4] (Table 9 beta-lactams, III = 100), 100; in data set [4] (Table 10 phthalyl amides, III = 100.0), 100.0. In addition, in data set [3] (phthalyl amidase, […], pH 8), the “hydrolyzed (HPLC)” value worked out at 90.0%.

Consider `O=C(O)C1=C(Cl)CCC2C(N3C(=O)c4ccccc4C3=O)C(=O)N12` (stereo not shown) [XXXIII], for which, in [5], the “hydrolysis of phthalimido to phthalamido form in buffer (in words)” value is “readily hydrolyzes”. In data set [3] (4 grams substrate, 80 units enzyme, pH 8.0, 30° C., after 510 minutes), the “hydrolyzed (HPLC)” value was determined as 98%.

B1: phthalyl amidase (Xanthobacter agilis) (protein)
chain: QAPSVHQHVAFTEEIGDLPDGSSYMIRVPENWNGVLIRDLDLVSGTSNSNAARYETMLKEGFAVAGTARHPLRQWQYDPAHEIENLNHVLDTFEENYGSPERVIQYGCSGGAHVSLAVAEDFSDRVDGSVALAAHTPVWIMNSFLDGWFSLQSLIGEYYVEAGHGPLSDLAITKLPNDGSSNSSGHGMEGDLPAAWRNAFTAANATPEGRARMALAFALGQWSPWLADNTPQPDLDDPEAIADSVYESAMRLAGSPGGEARIMFENAARGQQLSWNDDIDYADFWENSNPAMKSAVQELYDTAGLDLQSDIETVNSQPRIEASQYALDYWNTPGRNVIGDPEVPVLRLHMIGDYQIPYSLVQGYSDLISENNNDDLYRTAFVQSTGHCNFTAAESSAAIEVMMQRLDTGEWPSTEPDDLNAIAEASNTGTEARFMALDGWEIPEYNRTWKPE
notes: 42-aa signal peptide removed
The term Km denotes the substrate concentration at which the rate is half of its maximum. Turning to B1, the Km is on record as 0.05 mM in data set [6]; 0.17 mM in data set [7]; 0.14 mM in [8]; 0.9 mM in [9] (other: 50 mM potassium phosphate buffer, pH 8.0, 30° C., pH 8.0, 30.0 °C); 0.9 mM in [9] (other: 32° C., pH 8.2, II, XVII, XVIII with 0.9 μg/ml enzyme, III and XI with 5.14 μg/ml, pH 8.2, 32.0 °C); 0.09 mM in [10].
